Laboratory results as given in the NIST ThermoML archive (doi:10.1016/j.tca.2015.06.017).

Experiment: xn = mol fraction of the nth substance listed
Conditions: Liquid, Vibrating tube method

CCC(C)Cl (stereo not drawn) [2-chlorobutane] + CCCCCCC
mass density [kg/m3]
Conditions | 283.15 K | 293.15 K | 298.15 K
100 kPa, x2 = 0.0524 | 870.08 | 859.09 | 853.5
100 kPa, x2 = 0.1018 | 857.33 | 846.5 | 841
100 kPa, x2 = 0.1968 | 834.23 | 823.7 | 818.39
100 kPa, x2 = 0.3006 | 810.89 | 800.7 | 795.55
100 kPa, x2 = 0.4029 | 789.62 | 779.7 | 774.75
100 kPa, x2 = 0.5017 | 770.58 | 760.98 | 756.09
100 kPa, x2 = 0.6008 | 752.78 | 743.44 | 738.72
100 kPa, x2 = 0.7023 | 735.82 | 726.75 | 722.14
100 kPa, x2 = 0.7977 | 720.94 | 712.09 | 707.68
100 kPa, x2 = 0.8986 | 706.28 | 697.66 | 693.37
100 kPa, x2 = 0.952 | 698.95 | 690.45 | 686.19
2000 kPa, x2 = 0.0524 | 872.12 | 861.28 | 855.76
2000 kPa, x2 = 0.1018 | 859.33 | 848.65 | 843.26
2000 kPa, x2 = 0.1968 | 836.28 | 825.79 | 820.66
2000 kPa, x2 = 0.3006 | 812.93 | 802.72 | 797.76
2000 kPa, x2 = 0.4029 | 791.64 | 781.78 | 776.96
2000 kPa, x2 = 0.5017 | 772.59 | 763.02 | 758.28
2000 kPa, x2 = 0.6008 | 754.76 | 745.47 | 740.85
2000 kPa, x2 = 0.7023 | 737.76 | 728.77 | 724.29
2000 kPa, x2 = 0.7977 | 722.86 | 714.07 | 709.77
2000 kPa, x2 = 0.8986 | 708.14 | 699.64 | 695.44
2000 kPa, x2 = 0.952 | 700.89 | 692.42 | 688.29
5000 kPa, x2 = 0.0524 | 875.14 | 864.55 | 859.07
5000 kPa, x2 = 0.1018 | 862.34 | 851.88 | 846.59
5000 kPa, x2 = 0.1968 | 839.19 | 828.97 | 823.96
5000 kPa, x2 = 0.3006 | 815.75 | 805.92 | 800.99
5000 kPa, x2 = 0.4029 | 794.46 | 784.93 | 780.1
5000 kPa, x2 = 0.5017 | 775.35 | 766.08 | 761.4
5000 kPa, x2 = 0.6008 | 757.49 | 748.48 | 743.93
5000 kPa, x2 = 0.7023 | 740.41 | 731.73 | 727.26
5000 kPa, x2 = 0.7977 | 725.51 | 716.99 | 712.67
5000 kPa, x2 = 0.8986 | 710.74 | 702.52 | 698.28
5000 kPa, x2 = 0.952 | 703.44 | 695.28 | 691.09
7000 kPa, x2 = 0.0524 | 877.15 | 866.63 | 861.28
7000 kPa, x2 = 0.1018 | 864.31 | 853.99 | 848.7
7000 kPa, x2 = 0.1968 | 841.13 | 831.06 | 826.06
7000 kPa, x2 = 0.3006 | 817.66 | 807.98 | 803.03
7000 kPa, x2 = 0.4029 | 796.31 | 786.88 | 782.16
7000 kPa, x2 = 0.5017 | 777.21 | 768.04 | 763.43
7000 kPa, x2 = 0.6008 | 759.32 | 750.4 | 745.91
7000 kPa, x2 = 0.7023 | 742.22 | 733.58 | 729.24
7000 kPa, x2 = 0.7977 | 727.32 | 718.82 | 714.61
7000 kPa, x2 = 0.8986 | 712.5 | 704.3 | 700.19
7000 kPa, x2 = 0.952 | 705.2 | 697.05 | 692.99
10000 kPa, x2 = 0.0524 | 880.01 | 869.74 | 864.5
10000 kPa, x2 = 0.1018 | 867.16 | 857.1 | 851.96
10000 kPa, x2 = 0.1968 | 844.01 | 834.15 | 829.21
10000 kPa, x2 = 0.3006 | 820.49 | 810.94 | 806.14
10000 kPa, x2 = 0.4029 | 799.08 | 789.81 | 785.11
10000 kPa, x2 = 0.5017 | 779.9 | 770.91 | 766.31
10000 kPa, x2 = 0.6008 | 761.96 | 753.22 | 748.74
10000 kPa, x2 = 0.7023 | 744.79 | 736.37 | 731.99
10000 kPa, x2 = 0.7977 | 729.85 | 721.59 | 717.31
10000 kPa, x2 = 0.8986 | 714.98 | 707.02 | 702.79
10000 kPa, x2 = 0.952 | 707.64 | 699.74 | 695.56
20000 kPa, x2 = 0.0524 | 889.1 | 879.38 | 874.44
20000 kPa, x2 = 0.1018 | 876.16 | 866.54 | 861.8
20000 kPa, x2 = 0.1968 | 852.83 | 843.5 | 838.93
20000 kPa, x2 = 0.3006 | 829.21 | 820.12 | 815.63
20000 kPa, x2 = 0.4029 | 807.66 | 798.87 | 794.49
20000 kPa, x2 = 0.5017 | 788.35 | 779.78 | 775.52
20000 kPa, x2 = 0.6008 | 770.29 | 761.93 | 757.79
20000 kPa, x2 = 0.7023 | 753.01 | 744.92 | 740.82
20000 kPa, x2 = 0.7977 | 737.95 | 730 | 726.04
20000 kPa, x2 = 0.8986 | 722.98 | 715.31 | 711.31
20000 kPa, x2 = 0.952 | 715.57 | 707.96 | 704.04
30000 kPa, x2 = 0.0524 | 897.39 | 888.05 | 883.44
30000 kPa, x2 = 0.1018 | 884.45 | 875.23 | 870.7
30000 kPa, x2 = 0.1968 | 860.93 | 852.05 | 847.61
30000 kPa, x2 = 0.3006 | 837.18 | 828.48 | 824.28
30000 kPa, x2 = 0.4029 | 815.5 | 807.16 | 802.95
30000 kPa, x2 = 0.5017 | 796.06 | 787.91 | 783.76
30000 kPa, x2 = 0.6008 | 777.85 | 769.94 | 765.87
30000 kPa, x2 = 0.7023 | 760.42 | 752.73 | 748.83
30000 kPa, x2 = 0.7977 | 745.22 | 737.68 | 733.86
30000 kPa, x2 = 0.8986 | 730.14 | 722.85 | 719
30000 kPa, x2 = 0.952 | 722.65 | 715.45 | 711.62
40000 kPa, x2 = 0.0524 | 905.09 | 896.17 | 891.7
40000 kPa, x2 = 0.1018 | 892.06 | 883.24 | 878.82
40000 kPa, x2 = 0.1968 | 868.43 | 859.99 | 855.64
40000 kPa, x2 = 0.3006 | 844.52 | 836.22 | 832.09
40000 kPa, x2 = 0.4029 | 822.78 | 814.71 | 810.61
40000 kPa, x2 = 0.5017 | 803.2 | 795.32 | 791.32
40000 kPa, x2 = 0.6008 | 784.86 | 777.21 | 773.3
40000 kPa, x2 = 0.7023 | 767.33 | 759.89 | 756.08
40000 kPa, x2 = 0.7977 | 751.95 | 744.68 | 741.01
40000 kPa, x2 = 0.8986 | 736.77 | 729.72 | 726.09
40000 kPa, x2 = 0.952 | 729.23 | 722.25 | 718.59
50000 kPa, x2 = 0.0524 | 912.23 | 903.66 | 899.36
50000 kPa, x2 = 0.1018 | 899.1 | 890.68 | 886.42
50000 kPa, x2 = 0.1968 | 875.41 | 867.25 | 863
50000 kPa, x2 = 0.3006 | 851.37 | 843.41 | 839.43
50000 kPa, x2 = 0.4029 | 829.44 | 821.7 | 817.84
50000 kPa, x2 = 0.5017 | 809.74 | 802.25 | 798.42
50000 kPa, x2 = 0.6008 | 791.3 | 784.01 | 780.24
50000 kPa, x2 = 0.7023 | 773.63 | 766.55 | 762.91
50000 kPa, x2 = 0.7977 | 758.16 | 751.26 | 747.7
50000 kPa, x2 = 0.8986 | 742.88 | 736.16 | 732.64
50000 kPa, x2 = 0.952 | 735.27 | 728.63 | 725.09
60000 kPa, x2 = 0.0524 | 918.92 | 910.6 | 906.5
60000 kPa, x2 = 0.1018 | 905.75 | 897.63 | 893.49
60000 kPa, x2 = 0.1968 | 881.9 | 874.05 | 870.05
60000 kPa, x2 = 0.3006 | 857.83 | 850.18 | 846.26
60000 kPa, x2 = 0.4029 | 835.76 | 828.39 | 824.58
60000 kPa, x2 = 0.5017 | 816 | 808.8 | 805.08
60000 kPa, x2 = 0.6008 | 797.44 | 790.44 | 786.84
60000 kPa, x2 = 0.7023 | 779.67 | 772.89 | 769.41
60000 kPa, x2 = 0.7977 | 764.09 | 757.51 | 754.11
60000 kPa, x2 = 0.8986 | 748.68 | 742.26 | 738.96
60000 kPa, x2 = 0.952 | 741.04 | 734.67 | 731.32
65000 kPa, x2 = 0.0524 | 922.13 | 913.94 | 909.89
65000 kPa, x2 = 0.1018 | 908.95 | 900.93 | 896.87
65000 kPa, x2 = 0.1968 | 885.12 | 877.31 | 873.4
65000 kPa, x2 = 0.3006 | 860.95 | 853.35 | 849.57
65000 kPa, x2 = 0.4029 | 838.88 | 831.52 | 827.86
65000 kPa, x2 = 0.5017 | 819 | 811.84 | 808.29
65000 kPa, x2 = 0.6008 | 800.38 | 793.41 | 789.99
65000 kPa, x2 = 0.7023 | 782.58 | 775.8 | 772.52
65000 kPa, x2 = 0.7977 | 766.97 | 760.33 | 757.18
65000 kPa, x2 = 0.8986 | 751.48 | 745.06 | 741.94
65000 kPa, x2 = 0.952 | 743.76 | 737.4 | 734.28
